Data reported in patent publication US11246929B2, “Combination of a protein kinase inhibitor and an additional chemotherapeutic agent” (Merck Patent GmbH, priority 2016, dated 2022).

Key:
Test in all cases: SRB growth inhibition, 93 cell lines panel
Assay type in all cases: cell-based
152OS = conditions: bone, read-out: GI50 of etoposide (±Compound 1)
Method: (§1) 90 μl of cells, after a 48-hour pre-growth period, were treated by mixing with 10 μl of the compound-containing media (resulting in a final DMSO concentration of 0.1%).
(§2) This is the drug concentration causing a 50% reduction compared to the net protein increase in control cells during the drug incubation period. In other words, G150 is IC50 corrected for time zero. […] TGI was calculated from Ti=Tz. […] It was calculated as 100×[(Ti−Tz)/Tz]=−50.

15O31 = conditions: 15O31, kidney; read-out: GI50 of etoposide (±Compound 1)
Method: as §1, §2

A204 = conditions: Homo sapiens; A204, muscle; read-out: GI50 of etoposide (±Compound 1)
Method: as §1, §2

A375 = conditions: Homo sapiens, A-375; A375, skin; read-out: GI50 of etoposide (±Compound 1)
Method: as §1, §2

ASPC1 = conditions: Homo sapiens; ASPC1, pancreas; read-out: GI50 of etoposide (±Compound 1)
Method: as §1, §2

CAKI1 = conditions: Homo sapiens, CAKI-1; CAKI1, kidney; read-out: GI50 of etoposide (±Compound 1)
Method: as §1, §2

CLS439 = conditions: CLS439, bladder; read-out: GI50 of etoposide (±Compound 1)
Method: as §1, §2

COLO205 = conditions: Homo sapiens, COLO 205; COLO205, colon; read-out: GI50 of etoposide (±Compound 1)
Method: as §1, §2

DU145 = conditions: Homo sapiens, DU-145; DU145, prostate; read-out: GI50 of etoposide (±Compound 1)
Method: as §1, §2

EFO21 = conditions: Homo sapiens, EFO-21; EFO21, ovary; read-out: GI50 of etoposide (±Compound 1)
Method: as §1, §2

EJ28 = conditions: Homo sapiens, EJ-28; EJ28, bladder; read-out: GI50 of etoposide (±Compound 1)
Method: as §1, §2

HCT116 = conditions: Homo sapiens, HCT-116; HCT116, colon; read-out: GI50 of etoposide (±Compound 1)
Method: as §1, §2

HL-60 = conditions: Homo sapiens; HL-60, hematological; read-out: GI50 of etoposide (±Compound 1)
Method: as §1, §2

HT29 = conditions: Homo sapiens, HT-29; HT29, colon; read-out: GI50 of etoposide (±Compound 1)
Method: as §1, §2

J82 = conditions: Homo sapiens; J82, bladder; read-out: GI50 of etoposide (±Compound 1)
Method: as §1, §2

JEG3 = conditions: Homo sapiens, JEG-3; JEG3, placenta; read-out: GI50 of etoposide (±Compound 1)
Method: as §1, §2

KASUMI-1 = conditions: Homo sapiens; KASUMI-1, hematological; read-out: GI50 of etoposide (±Compound 1)
Method: as §1, §2

L-363 = conditions: Homo sapiens; L-363, hematological; read-out: GI50 of etoposide (±Compound 1)
Method: as §1, §2

MDAMB231 = conditions: Homo sapiens, MDA-MB-231; MDAMB231, breast; read-out: GI50 of etoposide (±Compound 1)
Method: as §1, §2

MDAMB436 = conditions: Homo sapiens, MDA-MB-436; MDAMB436, breast; read-out: GI50 of etoposide (±Compound 1)
Method: as §1, §2

MDAMB468 = conditions: Homo sapiens, MDA-MB-468; MDAMB468, breast; read-out: GI50 of etoposide (±Compound 1)
Method: as §1, §2

MV4-11 = conditions: Homo sapiens; MV4-11, hematological; read-out: GI50 of etoposide (±Compound 1)
Method: as §1, §2

NCIH292 = conditions: Homo sapiens, NCI-H292; NCIH292, lung; read-out: GI50 of etoposide (±Compound 1)
Method: as §1, §2

OVCAR3 = conditions: Homo sapiens, OVCAR-3; OVCAR3, ovary; read-out: GI50 of etoposide (±Compound 1)
Method: as §1, §2

PBMC = conditions: hematological, read-out: GI50 of etoposide (±Compound 1)
Method: as §1, §2

PC3 = conditions: Homo sapiens, PC-3; PC3, prostate; read-out: GI50 of etoposide (±Compound 1)
Method: as §1, §2

RDES = conditions: RD-ES, bone, read-out: GI50 of etoposide (±Compound 1)
Method: as §1, §2

SKMEL28 = conditions: Homo sapiens, SK-MEL-28; SKMEL28, skin; read-out: GI50 of etoposide (±Compound 1)
Method: as §1, §2

SKMEL5 = conditions: Homo sapiens, SK-MEL-5; SKMEL5, skin; read-out: GI50 of etoposide (±Compound 1)
Method: as §1, §2

TE671 = conditions: Homo sapiens, TE-671; TE671, muscle; read-out: GI50 of etoposide (±Compound 1)
Method: as §1, §2

## COc1cc([C@@H]2c3cc4c(cc3[C@@H](O[C@@H]3O[C@@H]5CO[C@@H](C)O[C@H]5[C@H](O)[C@H]3O)[C@H]3COC(=O)[C@H]23)OCO4)cc(OC)c1O [Etoposide]
152OS
  GI50: 1080 nM
15O31
  GI50: 7.91 µM
A204
  GI50: 286 nM
A375
  GI50: 378 nM
ASPC1
  GI50: > 10 µM
CAKI1
  GI50: 520 nM
CLS439
  GI50: 965 nM
COLO205
  GI50: 1050 nM
DU145
  GI50: 701 nM
EFO21
  GI50: 8.22 µM
EJ28
  GI50: 440 nM
HCT116
  GI50: 770 nM
HL-60
  GI50: 120 nM
HT29
  GI50: 2220 nM
J82
  GI50: 7.93 µM
JEG3
  GI50: 41 nM
KASUMI-1
  GI50: 494 nM
L-363
  GI50: 327 nM
MDAMB231
  GI50: 1940 nM
MDAMB436
  GI50: 378 nM
MDAMB468
  GI50: 1170 nM
MV4-11
  GI50: 38 nM
NCIH292
  GI50: 1650 nM
OVCAR3
  GI50: 2540 nM
PBMC
  GI50: > 10 µM
PC3
  GI50: 5.24 µM
RDES
  GI50: 412 nM
SKMEL28
  GI50: 1890 nM
SKMEL5
  GI50: 558 nM
TE671
  GI50: 1150 nM
